From patent US20260159520A1, “HETEROBIFUNCTIONAL COMPOUNDS AND METHODS OF TREATING DISEASE” (Halda Therapeutics OpCo, Inc., priority 2022, published 2026)

Legend:
Type in all cases: cell-based
[1] = tested on: T-Rex 293 cell line SC3 cells lacking increased expression of androgen receptor protein; test: Cellular growth inhibition, T-Rex 293 SC3 cells without doxycycline; conditions: not exposed to doxycycline, 72 hours, CellTiter-Glo 2.0
How it was run: (§1)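 Doxycycline (10 ng/mL) was either included or omitted to toggle wild-type androgen receptor expression in SC3 cells, a T-Rex 293 clone, grown in stripped-serum, phenol red-free medium. After 72 hours with compound, viable cells were quantified by CellTiter-Glo 2.0.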

[2] = tested on: T-Rex 293 cell line SC cells lacking increased expression of progesterone receptor isoform B protein; test: Cellular growth inhibition, T-Rex 293 SC cells without doxycycline; conditions: not exposed to doxycycline, 72 hours, CellTiter-Glo 2.0
Method: (§2) The following types of cells were prepared for this experiment: (i) a T-Rex 293 cell line having increased expression of progesterone receptor isoform B protein due to exposure to doxycycline and (ii) a T-Rex 293 cell line lacking increased expression of progesterone receptor isoform B protein. Ability of the test compounds to inhibit proliferation of the foregoing cell types was evaluated according to the procedures set forth below.
(§3) The doxycycline-inducible progesterone receptor isoform B protein expressing cell line was established using the following protocol: T-Rex 293 cells were purchased from Invitrogen (Cat #R71007) and transfected using Lipofectamine 2000 with the wild-type progesterone receptor B protein sequence cloned into the pcDNA4/TO vector. Transfected cells were selected using 400 μg/mL Zeocin (Invitrogen Cat #R25001). Following selection, single clones were raised and maintained in Dulbecco's Modified Eagle Medium (DMEM) supplemented with 10% w/w Tetracycline-free fetal bovine serum (FBS) and 250 μg/mL Zeocin. Clones were analyzed for expression of progesterone receptor isoform B protein in the presence and absence of 10 ng/mL doxycycline (Sigma Cat #D9891), and a single doxycycline-inducible clone (hereinafter “SC”) was selected for use in downstream assays.
(§4) The SC cells were seeded on poly-D-lysine coated, black clear-bottom 384-well plates at 2500/well, in 25 μL Phenol Red Free Dulbecco's Modified Eagle Medium (DMEM) supplemented with 10% w/w charcoal-dextran treated fetal bovine serum (FBS) and 1% w/w pen-strep, with or without 10 ng/mL doxycycline. Pen-Strep is a commercially available mixture of penicillin G and streptomycin, which is used in mammalian cell culture media to prevent bacterial contamination. Phenol Red Free Dulbecco's Modified Eagle Medium (DMEM) supplemented with 10% w/w charcoal-dextran treated fetal bovine serum (FBS) and 1% w/w pen-strep, with or without 10 ng/mL doxycycline is herein referred to as Treatment Medium. Following seeding of cells in the plates, the plates were spun at 300×g for 30 seconds, then equilibrated to room temperature for 30 minutes, and then deposited in a humidified tissue culture incubator maintained at 37° C. with 5% CO2.
(§5) At 24 hours after seeding of the cells, dilutions of test compound were prepared in DMSO and dissolved in Treatment Medium, to achieve a final DMSO concentration of 0.5% w/w, thereby providing the Test Compound Solution. A 25 μL aliquot of the Test Compound Solution was added to cells in the well plates. An equal volume of a solution containing DMSO and Treatment Medium was used as a negative control. Following treatment of cells with Test Compound Solution or said equal volume of a solution containing DMSO and Treatment Medium, the plates were spun at 300×g for 30 seconds, and then left in an incubator for 72 hours.
(§6) At the end of the treatment duration, cell viability was quantified with CellTiter-Glo 2.0 reagent (Promega Cat #G9243). For this purpose, plates were equilibrated to room temperature for 30 minutes, and then 25 μL of CellTiter-Glo 2.0 reagent was added to cells in the plate wells. Plates were then agitated on a shaker for two minutes at 500 rpm and subsequently incubated at room temperature for 10 minutes. Following incubation, the plates were spun at 3000×g for 30 seconds, then sealed with an optical adhesive cover, and luminescence readings were measured with an EnVision Plate Reader (Perkin Elmer).
(§7) Data was normalized using zero luminescence for baseline. A four-parameter non-linear regression curve fit was applied to dose-response data in GraphPad Prism data analysis software to determine the half-maximal growth inhibitory concentration (GI50) for each test compound.

[3] = tested on: T-Rex 293 cell line SC cells having increased expression of progesterone receptor isoform B protein; test: Cellular growth inhibition, T-Rex 293 SC cells with doxycycline (increased progesterone receptor isoform B expression); conditions: with 10 ng/mL doxycycline (increased progesterone receptor isoform B), 72 hours, CellTiter-Glo 2.0
Method: as §2, §3, §4, §5, §6, §7

T47D cells = test: Cellular growth inhibition assay for T47D cells; conditions: Homo sapiens, 72 hours, CellTiter-Glo 2.0
How it was run: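 Growth inhibition as GI50, fitted with four parameters to CellTiter-Glo luminescence after 72 h of compound exposure (0.5% DMSO). Cells were T47D, grown in insulin-supplemented (0.2 units/mL) DMEM with 10% FBS and treated one day post-seeding.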

[4] = tested on: T-Rex 293 cell line SC3 cells having increased expression of androgen receptor protein; test: Cellular growth inhibition, T-Rex 293 SC3 cells with doxycycline (increased androgen receptor expression); conditions: with 10 ng/mL doxycycline (increased androgen receptor), 72 hours, CellTiter-Glo 2.0
How it was run: as §1

VCaP cells = test: Cellular growth inhibition assay for VCaP cells; conditions: Homo sapiens, 72 hours, CellTiter-Glo 2.0

Row | GI50 (T47D cells) [µM] | GI50 (VCaP cells) [µM] | Compound | GI50 [1] [µM] | GI50 [2] [µM] | GI50 [3] [µM] | GI50 [4] [µM]
1 | 0.5 to 1.5 | – | CC1(C)[C@H](NC(=O)c2cnc(N3CCC(OCCOCCOCCNS(=O)(=O)c4ccc(Nc5ncc(Br)c(Nc6cccc(F)c6C(N)=O)n5)cc4)CC3)nc2)C(C)(C)[C@H]1Oc1ccc(C#N)c(Cl)c1 [Compound I-14] | > 3.5 | > 3 | > 3 | > 3.5
2 | – | < 0.1 | CCc1cnn2c(NCc3ccc(OCCOCCOCCOCCOCCOCCOCCOC4CCN(c5ncc(C(=O)N[C@H]6C(C)(C)[C@H](Oc7ccc(C#N)c(Cl)c7)C6(C)C)cn5)CC4)nc3)cc(N3CCCC[C@H]3CCO)nc12 [Compound I-10] | 0.1 to 1 | < 0.5 | < 0.5 | < 0.1
3 | – | – | CCc1cnn2c(NCc3ccc(OCCCCOC4CCN(c5ncc(C(=O)N[C@H]6C(C)(C)[C@H](Oc7ccc(C#N)c(Cl)c7)C6(C)C)cn5)CC4)nc3)cc(N3CCCC[C@H]3CCO)nc12 [Compound I-27] | > 3.5 | > 3 | < 0.5 | 0.1 to 1
